Data: patent publication US11655247B2, “Nanoluc suicide substrates” (PROMEGA CORPORATION, priority 2018, dated 2023)
“Also recorded” adds a separate entry of the source.

What was measured:
NanoLuc [1] = target: T1, NanoLuc (Oplophorus gracilirostris, UniProt Q9GV45, A31E/A60N/A81I/F95D/I117V/K70R/L54V/L99Q/M102K/N193R/P142E/Q151K/Q38R/Q45L/V71I/Y165I); assay type: biochemical; conditions: relative value, Furimazine set to 1; NanoLuc; read three minutes after substrate addition
Description: Luminescence Assay Procedure:
Each compound to be screened was dissolved in DMSO (5 mM) and then further diluted to 100 μM in NANO-GLO® Luciferase Assay Buffer. Km values were determined by first serially diluting substrates two-fold into NANO-GLO® Luciferase Assay Buffer. Substrate dilutions were then combined with an equal volume of NanoLuc diluted to 4 ng/ml in TBS+0.01% BSA. Autoluminescence was measured by combining the 100 uM dilution of substrate with TBS+0.01% BSA. Luminescence and autoluminescence values were measured in a GloMax®-Multi+ luminometer three minutes after substrate addition. Signal decay was measured by combining equal volumes of 100 uM of substrate with 4 ng/ml NanoLuc in TBS+0.01% BSA and then samples were read in five minute intervals for two hours using a GloMax®-Multi+. Km was calculated using GraphPad Prism using nonlinear Michaelis-Menten regression. Signal half-life values were calculated using GraphPad Prism Non-linear decay, plateau set to zero.

NanoLuc [2] = target: T1, NanoLuc; assay: Inhibition of NanoLuc luciferase: blocking of furimazine luminescence after pre-incubation; assay type: biochemical; conditions: for Inhibition of NanoLuc (bioluminescence upon later furimazine addition): compound incubated with NanoLuc first, then furimazine (10 μM) added
Description: Compounds were also tested for their ability to block furimazine luminescence with NanoLuc. Typically, NanoLuc (0.4 μg/mL) in DMEM was incubated with either furimazine or test compound (50 μM) while monitoring RLU's with a GloMax® luminometer for 10-60 minutes. After the set time, the plate was removed from the instrument, and a dose of furimazine (10 μM) was added to the well containing the test compound and monitored for 10-60 minutes.
FIGS. 3A-B depicts inhibition of Nluc luciferase by furimazine-h. Furimazine-h (10 μM) was incubated with NanoLuc in NanoGlo or DMEM for 15 or 10 minutes, respectively. This bright signal rapidly degrades to a fraction of the signal observed in the furimazine positive control wells.
FIG. 9 depicts inhibition of Nluc luciferase by furimazine-h. This is a reverse addition experiment as compared to FIG. 3. Furimazine (10 μM) was incubated with NanoLuc in NanoGlo® buffer for 15 minutes.
JRW-0855 and JRW-1088 were incubated with NanoLuc in DMEM for 12 minutes. […] After the incubation period, 10 μM furimazine was added to the well.

[3] = target: NanoBiT™ Binary luciferase (Oplophorus gracilirostris, UniProt Q9GV45, A31E/A60N/A81I/F95D/I117V/K70R/L54V/L99Q/M102K/P142E/Q151K/Q38R/Q45L/V71I/Y165I); assay: Inhibition of NanoBiT Binary luciferase (HiBiT + LgBiT); assay type: biochemical
Description: Compounds were also tested for their ability to inhibit the NanoBiT™ Binary luciferase. HiBiT (SEQ ID NO: 3) and LgBiT (SEQ ID NO: 4) (two subunits of the NanoBiT™ luciferase) were incubated with furimazine or furimazine-h for 15 minutes. Following the incubation period, 10 μM furimazine was added. […] This signal rapidly degrades to a fraction of the signal observed in the furimazine positive control wells. Addition of furimazine to the furimazine positive control wells results in an increase in bioluminescence.

[4] = tested on: NanoLuc-HaloTag (Nluc-HT); assay: Fluorescent labeling of NanoLuc-HaloTag, SDS/PAGE fluorescence imaging; assay type: biochemical; conditions: 0.5 μM protein, 50 μM label, 30 minutes, room temperature
Description: The efficiency of the NanoLuc suicide substrates was compared with a chloroalkane-FAM substrate with a fusion protein in which the HaloTag protein (SEQ ID NO: 5) is fused to either glutathione transferase (GST) or NanoLuc.
Either FAM chloroalkane or coelenterazine FAM substrate was incubated with glutathione transferase-HaloTag (GST-HT) or NanoLuc-HaloTag (Nluc-HT) fusions. The reactions were with 0.5 μM protein (GST-HT or Nluc-HT) and 50 μM of label (100× excess of label) and incubated for 30 minutes at room temperature. The sample titrations of each sample were then loaded to the SDS/PAGE gel. The fluorescence (473ex) (Cy2 filter set) was read and quantified. […] Results are quantified in FIG. 8B.

[5] = Stability in solution noted at preparation; assay type: physicochemical; conditions: note at preparation
[6] = tested on: NanoLuc-HaloTag fusion protein; assay: Direct and two-step labeling with TCO-tetrazine or DBCO-azide pair, fluorescence imaging on SDS/PAGE gel; assay type: biochemical; conditions: for Two-step labeling with tetrazine-FAM (JRW-1577): second step tetrazine-FAM (JRW-1577)
Description: Similar to the previous example, NanoLuc-HaloTag protein was incubated with compounds to either directly label or label via the two-step process with FAM. Compounds were incubated with the NanoLuc-HaloTag fusion protein and analyzed by florescence imaging on SDS/PAGE gel.

T1 sequence (Q9GV45 28-196 with tags or gaps with the stated changes limits assumed): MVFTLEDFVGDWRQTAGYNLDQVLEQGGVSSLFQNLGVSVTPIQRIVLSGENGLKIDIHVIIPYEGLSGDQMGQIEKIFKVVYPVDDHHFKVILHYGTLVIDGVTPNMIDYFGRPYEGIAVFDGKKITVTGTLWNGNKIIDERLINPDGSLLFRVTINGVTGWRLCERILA
NanoBiT™ Binary luciferase, sequence (Q9GV45 other isoform, or with tags, fused parts or gaps with the stated changes): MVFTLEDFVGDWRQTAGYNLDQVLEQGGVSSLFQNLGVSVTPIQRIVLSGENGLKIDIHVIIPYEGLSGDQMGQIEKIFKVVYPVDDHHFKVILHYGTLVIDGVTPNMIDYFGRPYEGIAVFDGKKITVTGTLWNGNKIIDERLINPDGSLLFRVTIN

SMILES | RLU (at 100 μM) (NanoLuc [1]) | Inhibition of NanoLuc (bioluminescence upon later furimazine addition) (NanoLuc [2]) | Stability in solution [5] | also measured
O=c1c(Cc2ccco2)nc2c(Cc3ccccc3)[nH]c(-c3ccc(O)cc3)cn1-2 [Furimazine-h, 8-benzyl-2-(furan-2-ylmethyl)-6-(4-hydroxyphenyl)imidazo[1,2-a]pyrazin-3(7H)-one, reference compound] | 1 | NanoLuc is inhibited; also recorded: exemplary suicide substrates of NanoLuc | – | Inhibition of NanoLuc, reverse addition (NanoLuc [2]; furimazine (10 μM) with NanoLuc in NanoGlo buffer 15 minutes, then compound added): rapid signal decay; Inhibition of NanoBiT luciferase ([3]; 15 minutes incubation, then 10 μM furimazine added): effectively inhibited; Initial luminescent signal compared with furimazine ([3]; HiBiT and LgBiT incubated with compound): comparable to that of furimazine
O=C(NCCCCCCCCOc1ccc(Cc2nc3c(Cc4ccccc4)[nH]c(-c4ccc(O)cc4)cn-3c2=O)cc1F)c1ccc(C(=O)[O-])c(-c2c3ccc(O)cc3[o+]c3cc(O)ccc23)c1 [JRW-0906, 4-((8-(4-((8-benzyl-6-(4-hydroxyphenyl)-3-oxo-3,7-dihydroimidazo[1,2-a]pyrazin-2-yl)methyl)-2-fluorophenoxy)octyl)carbamoyl)-2-(3,6-dihydroxyxanthylium-9-yl)benzoate] | 0.036 | exemplary suicide substrates of NanoLuc | – | Labeling efficiency relative to the chloroalkane-HT system [4]: ~50%
CN(C)c1ccc2c(-c3cc(C(=O)NCCCCCCCCOc4ccc(Cc5nc6c(Cc7ccccc7)[nH]c(-c7ccc(O)cc7)cn-6c5=O)cc4F)ccc3C(=O)[O-])c3ccc(N(C)C)cc3[o+]c2c1 [JRW-0912, 4-((8-(4-((8-benzyl-6-(4-hydroxyphenyl)-3-oxo-3,7-dihydroimidazo[1,2-a]pyrazin-2-yl)methyl)-2-fluorophenoxy)octyl)carbamoyl)-2-(3,6-bis(dimethylamino)xanthylium-9-yl)benzoate] | 0.000061 | did not inhibit NanoLuc | instability in solution | –
CN(C)c1ccc2c(-c3cc(C(=O)NCCOCCOCCC(=O)NCCCCCCCCOc4ccc(Cc5cc6c(Cc7ccccc7)[nH]c(-c7ccc(O)cc7)cn-6c5=O)cc4F)ccc3C(=O)[O-])c3ccc(N(C)C)cc3[o+]c2c1 [JRW-0927, 4-((2-(2-(3-((8-(4-((1-benzyl-3-(4-hydroxyphenyl)-6-oxo-2,6-dihydropyrrolo[1,2-a]pyrazin-7-yl)methyl)-2-fluorophenoxy)octyl)amino)-3-oxopropoxy)ethoxy)ethyl)carbamoyl)-2-(3,6-bis(dimethylamino)xanthylium-9-yl)benzoate] | 0.0000024 | did not inhibit NanoLuc | instability in solution | –
CC(=O)Oc1ccc2c(c1)Oc1cc(OC(C)=O)ccc1C21OC(=O)c2ccc(C(=O)NCCCCCCCCOc3ccc(Cc4nc5c(Cc6ccccc6)[nH]c(-c6ccc(O)cc6)cn-5c4=O)cc3F)cc21 [JRW-0972, 6-((8-(4-((8-benzyl-6-(4-hydroxyphenyl)-3-oxo-3,7-dihydroimidazo[1,2-a]pyrazin-2-yl)methyl)-2-fluorophenoxy)octyl)carbamoyl)-3-oxo-3H-spiro[isobenzofuran-1,9′-xanthene]-3′,6′-diyl diacetate] | 0.00005 | did not inhibit NanoLuc | instability in solution | –
COc1cc2c(c(Cl)c1OC(C)=O)Oc1c(cc(OC)c(OC(C)=O)c1Cl)C21OC(=O)c2ccc(C(=O)NCCCCCCCCOc3ccc(Cc4nc5c(Cc6ccccc6)[nH]c(-c6ccc(O)cc6)cn-5c4=O)cc3F)cc21 [JRW-0986, 6-((8-(4-((8-benzyl-6-(4-hydroxyphenyl)-3-oxo-3,7-dihydroimidazo[1,2-a]pyrazin-2-yl)methyl)-2-fluorophenoxy)octyl)carbamoyl)-4′,5′-dichloro-2′,7′-dimethoxy-3-oxo-3H-spiro[isobenzofuran-1,9′-xanthene]-3′,6′-diyl diacetate] | 0.00005 | did not inhibit NanoLuc | instability in solution | –
[N-]=[N+]=NCCCCCCCCOc1ccc(Cc2nc3c(Cc4ccccc4)[nH]c(-c4ccc(O)cc4)cn-3c2=O)cc1F [JRW-1022, 2-(4-((8-azidooctyl)oxy)-3-fluorobenzyl)-8-benzyl-6-(4-hydroxyphenyl)imidazo[1,2-a]pyrazin-3(7H)-one] | – | partial Nluc inhibitors | – | Two-step labeling with DBCO-FAM ([6]; second step DBCO-FAM): two-step labeling occurs
O=C(CCC(=O)N1Cc2ccccc2C#Cc2ccccc21)NCCCCCCCCOc1ccc(Cc2nc3c(Cc4ccccc4)[nH]c(-c4ccc(O)cc4)cn-3c2=O)cc1F [JRW-1549, N^1-(8-(4-((8-benzyl-6-(4-hydroxyphenyl)-3-oxo-3,7-dihydroimidazo[1,2-a]pyrazin-2-yl)methyl)-2-fluorophenoxy)octyl)-N^4-DBCO-succinamide] | – | – | – | Two-step labeling with Azide-FAM ([6]; second step Azide-FAM): little to no labeling
O=C(NCCCCCCCCOc1ccc(Cc2nc3c(Cc4ccccc4)[nH]c(-c4ccc(O)cc4)cn-3c2=O)cc1F)OC1CC/C=C/CCC1 (stereo not shown) [JRW-1566, (E)-cyclooct-4-en-1-yl (8-(4-((8-benzyl-6-(4-hydroxyphenyl)-3-oxo-3,7-dihydroimidazo[1,2-a]pyrazin-2-yl)methyl)-2-fluorophenoxy)octyl)carbamate] | – | – | – | Two-step labeling with tetrazine-FAM (JRW-1577) [6]: two-step labeling of NanoLuc
O=C(NCCOCCOCCCCCCCl)OC1CC/C=C/CCC1 (stereo not shown) [JRW-1567, (E)-cyclooct-4-en-1-yl (2-(2-((6-chlorohexyl)oxy)ethoxy)ethyl)carbamate] | – | – | – | Two-step labeling with tetrazine-FAM (JRW-1577) [6]: two-step labeling occurs
